Measured values: patent US6649193B1, “Prophylactic therapeutic and industrial antioxidant compositions enhanced with stabilized atomic hydrogen/free electrons and methods to prepare and use such compositions” (Henceforth Hibernia Inc., priority 1999, dated 2003)

Assay: Standardized in-vitro tests of free radical / reactive species scavenging
Assay type: biochemical
Conditions: cage-like agent added to the solution before electrolysis
Description: Electrochemical Method to Produce and Encage Atomic Hydrogen: Electrolysis is a very efficient method of producing atomic hydrogen free electrons. In the past, though, it was not possible to separate oxidizing products produced at the anode and reducing products produced at the cathode. Recently, Japanese scientists used a semipermeable membrane to separate the cathode and anode areas, while not perturbing the flow of electrons delivered to the media. Such devices are, for instance, described in Y. Shiramizu et al., J. Electrochem. Soc., Vol. 143, 1632 (1996), the content of which is incorporated by reference in its entirety. In short, such devices consist of a chamber (usually made of noncorrosive material such as plastic) which is divided in two compartments with a water-tight semipermeable Nafion membrane (Dupont corporation). In each compartment, there is an electrode connected to a DC current source. […] Several parameters can be measured to ensure the efficiency of electrolysis. […] The efficiency of reduction of vitamin B12 can be tested by measuring UV/VISIBLE spectra and recording the absorbance at 387 nm, which is proportional to the amount of reduced vitamin B12, see G. Chithambarathanu Pillai and E. S. Gould, Inorganic Chemistry, Vol. 25, 3353 (1986), the content of which is incorporated by reference in its entirety. […]

cyanocobalamin [vitamin B12]
scavenging ability of the electrolyzed solution: enhanced in a dose-dependent fashion
